Source: publication PMC9228872, “Repositioning of Quinazolinedione-Based Compounds on Soluble Epoxide Hydrolase (sEH) through 3D Structure-Based Pharmacophore Model-Driven Investigation” (Molecules, 2022)

Assays:
[1] = biological target: T1, soluble epoxide hydrolase (sEH) (Homo sapiens, UniProt P34913); assay: cell-free fluorescence assay with PHOME substrate, single concentration […]; assay type: biochemical; settings: read-out: sEH Residual Activity (%)
T1 construct: gene EPHX2; human recombinant sEH; C-terminal hydrolase domain activity measured
T1 sequence (P34913 1-555): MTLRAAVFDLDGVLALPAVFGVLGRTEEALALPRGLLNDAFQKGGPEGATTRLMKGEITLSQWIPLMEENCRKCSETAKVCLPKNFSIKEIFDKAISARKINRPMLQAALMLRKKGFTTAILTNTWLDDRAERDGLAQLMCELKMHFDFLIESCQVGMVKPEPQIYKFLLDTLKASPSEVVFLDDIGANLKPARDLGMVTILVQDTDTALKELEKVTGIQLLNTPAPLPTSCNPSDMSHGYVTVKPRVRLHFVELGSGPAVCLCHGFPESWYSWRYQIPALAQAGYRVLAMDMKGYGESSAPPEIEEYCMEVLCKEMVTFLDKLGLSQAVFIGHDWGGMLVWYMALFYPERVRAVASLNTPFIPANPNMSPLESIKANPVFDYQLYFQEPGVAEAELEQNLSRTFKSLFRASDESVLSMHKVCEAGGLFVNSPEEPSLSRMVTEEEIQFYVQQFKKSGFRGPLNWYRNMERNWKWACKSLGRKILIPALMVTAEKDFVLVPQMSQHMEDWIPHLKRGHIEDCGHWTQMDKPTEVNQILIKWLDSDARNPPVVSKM

[2] = biological target: T1, soluble epoxide hydrolase (sEH); assay: cell-free fluorescence assay with PHOME substrate, concentration-response; assay type: biochemical

Row | IC50 [2] [µM] | Compound | remaining activity at 10 µM [1] [%]
1 |  | O=C(CCCCCn1c(=O)[nH]c2ccccc2c1=O)Nc1ccc2ncsc2c1 [compound 8, N-(benzo[d]thiazol-6-yl)-6-(2,4-dioxo-1,2-dihydroquinazolin-3(4H)-yl)hexanamide] | 51.7 ± 3.3
2 |  | O=C(CCCCCCn1c(=O)[nH]c2ccccc2c1=O)Nc1cncc(Br)c1 [compound 6, N-(5-bromopyridin-3-yl)-7-(2,4-dioxo-1,2-dihydroquinazolin-3(4H)-yl)heptanamide] | 48.6 ± 3.8
3 |  | O=C(CCCCCn1c(=O)[nH]c2ccccc2c1=O)Nc1ccc(I)nc1 [compound 7, 6-(2,4-dioxo-1,2-dihydroquinazolin-3(4H)-yl)-N-(6-iodopyridin-3-yl)hexanamide] | 67.2 ± 4.4
4 | 8.8 ± 1.5 | O=C(CCCCn1c(=O)[nH]c2ccccc2c1=O)Nc1ccc2c(c1)OCCO2 [compound 3, N-(2,3-dihydrobenzo[b][1,4]dioxin-6-yl)-5-(2,4-dioxo-1,2dihydroquinazolin-3(4H)yl)pentanamide] | 
5 | 4.5 ± 1 | O=C(CCCCCn1c(=O)[nH]c2ccccc2c1=O)Nc1ccc2c(c1)OCCO2 [compound 4, N-(2,3-dihydrobenzo[b][1,4]dioxin-6-yl)-6-(2,4-dioxo-1,2-dihydroquinazolin-3(4H)-yl)hexanamide] | 
